Like-named read-outs stand apart in the source and are kept apart here.
Columns and labels:
HIV-2 03PTHCC19 = test: microbe, parasite or virus in culture; settings: Human immunodeficiency virus 2, TZM-bl; for IC50 / IC90: 48 h; for IC50: read-out: IC50 HIV-2; for IC90: read-out: IC90 HIV-2; for inhibition at 25 µg/mL: read-out: MPI (%) 25 μg/mL
Description: (§1) The HIV-1 SG3.1 is a reference subtype B strain that uses the CXCR4 coreceptor. It was obtained by transfection of HEK293T cells with pSG3.1 plasmid using jetPRIME transfection reagent (Polyplus-transfection SA, Illkirch, France), according to the instructions of the manufacturer.
(§2) Briefly, TZM-bl cells were infected with 200 TCID50 of HIV-1 or HIV-2 in the presence of serial-fold dilutions of the compounds in the growth medium, supplemented with diethylaminoethyl-dextran (DEAE-dextran). After 48 h of infection, luciferase expression was quantified with Pierce Firefly Luc One-Step Glow Assay Kit (ThermoFisher Scientific, Rockford, United States), according to the instructions of the manufacturer. For each compound dilution, the assay was set up in triplicate wells. Virus controls, cell controls, and inhibitors controls (drugs with a known action against each virus) were employed.

HIV-1 SG3.1 = test: microbe, parasite or virus in culture; settings: for IC50 / IC90: 48 h; for IC90: read-out: IC90 HIV-1; for inhibition at 25 µg/mL: read-out: MPI (%) 25 μg/mL; for Therapeutic index (CC50/IC50): HIV-1, CC50 in TZM-bl cells
Description: as §1, §2

P. berghei hepatic stage = test: In vitro hepatic infection of Huh7 cells by luciferase-expressing P. berghei; assay type: cell-based; settings: Plasmodium berghei, Huh-7; hepatic stage, Huh7 cells, 48 h after infection
Protocol: The inhibitory activity of test compounds on in vitro hepatic infection by P. berghei was determined by comparing the parasite load in compound- and solvent-treated P. berghei-infected Huh7 cells. Infection load was assessed by measurement of luminescence intensity in Huh7 cells infected, with a firefly luciferase-expressing P. berghei line, as previously described ([Ploemen et al., 2009]; [António et al., 2017]). Briefly, Huh7 cells were seeded in 96-well plates (1.0 × 10^4 cells per well) the day before drug treatment and infection. The medium was replaced by another medium containing the appropriate concentration of each compound approximately 1 h prior to infection with sporozoites freshly obtained through disruption of salivary glands of infected female Anopheles stephensi mosquitoes. Sporozoite addition was followed by centrifugation at 1,800 g for 5 min. Parasite infection load was measured 48 h after infection by a bioluminescence assay (Biotium). Cell confluence, a surrogate measure of compound toxicity to Huh7 cells, was assessed by fluorescence measurements using the alamarBlue assay, according to the manufacturer’s instructions. […] Specifically, non-linear regression analysis was employed to fit the normalized results of the dose-response curves, and IC50 values were determined using GraphPad Prism 8.0 (GraphPad Software, La Jolla, California, United States).

[1] = Cellular viability assay (alamarBlue) in TZM-bl cells; assay type: cell-based; settings: human, 50% cytotoxic concentration
Protocol: Before the antiviral activity screening, all spirocyclopentene-β-lactams were assayed for their in vitro cytotoxic activity (CC50) in TZM-bl cells (Table 4).
TZM-bl cells (AIDS Research and Reference Reagent Program, National Institutes of Health, United States) were cultured in complete growth medium consisting of Dulbecco’s Minimal Essential Medium (DMEM) supplemented with 10% fetal bovine serum (FBS), 100 U/ml of penicillin–streptomycin (Gibco/Invitrogen, United States), 1 mM of sodium pyruvate (Gibco/Invitrogen, United States), 2 mM of L-glutamine (Gibco/Invitrogen, United States), and 1 mM of non-essential amino acids (Gibco/Invitrogen, United States). Cell cultures were maintained at 37°C in 5% CO2.
The in vitro cytotoxicity of test compounds was evaluated in TZM-bl cells using alamarBlue cell viability reagent (Life Technologies, United States), according to the instructions of the manufacturer. The cells were cultured in the presence and absence of serial-fold dilutions of the test compounds. Each dilution of each compound was performed in triplicate wells. Medium controls (only growth medium), cell controls (cells without test compound), and cytotoxicity controls (a compound that kills cells) were employed in each assay.

[2] = Human immunodeficiency virus 1, TZM-bl, read-out: IC50 HIV-1, TZM-bl cells, 48 h
[3] = Human immunodeficiency virus 1, TZM-bl
[4] = read-out: IC50 HIV-1, TZM-bl cells

SMILES | IC50 (HIV-2 03PTHCC19) [nM] | IC90 (HIV-2 03PTHCC19) [nM] | inhibition at 25 µg/mL (HIV-2 03PTHCC19) [%] | IC50 (HIV-1 SG3.1; [2]) [nM] | IC90 (HIV-1 SG3.1; [3]) [nM] | inhibition at 25 µg/mL (HIV-1 SG3.1; [3]) [%] | IC50 (HIV-1 SG3.1; [4]) [nM] | IC50 (P. berghei hepatic stage) [nM] | melting point [°C] | CC50 [1] [µM] | Therapeutic index (CC50/IC50) (HIV-1 SG3.1)
CC1(C)SC2N(C(=O)C23CC=C(C(=O)OCC=Cc2ccccc2)C3C(=O)c2ccc(F)cc2)C1C(=O)OC(c1ccccc1)c1ccccc1 (centres unmarked) [Compound 14c, (1’R,2’R)-Benzhydryl spiro[(2-(4-fluorobenzoyl)-3-cinnamyloxycarbonylcyclopent-3-ene)-1’,6-penicillanate]] | 39 | 103 | 100 | < 20 | 18 | 100 | 15 | 1000 to 10000 | 76.5 to 78.5 | 77.6 | 
COc1ccc(COC(=O)C2=CCC3(C(=O)N4C(C(=O)OC(c5ccccc5)c5ccccc5)C(C)(C)SC43)C2C(=O)c2ccc(Cl)cc2)cc1 (centres unmarked) [Compound 14d, (1’R,2’R)-Benzhydryl spiro[(2-(4-chlorobenzoyl)-3-(4-methoxybenzyloxycarbonyl)cyclopent-3-ene)-1’,6-penicillanate]] | 65 | 123 | 100 | < 20 | 19 | 100 | 15 | 2000 ± 458 | 76.1 to 78.1 | 134 | 
CC1(C)SC2N(C(=O)C23C(C(=O)OCc2ccccc2)=CCC3C(=O)c2ccc(F)cc2)C1C(=O)OC(c1ccccc1)c1ccccc1 (stereo not drawn) [Compound 13a, (1′R,2′R)-benzhydryl spiro[(2-(4-fluorobenzoyl)-5-benzyloxycarbonylcyclopent-4-ene)-1′,6-penicillanate]] |  |  |  |  |  | 0 |  |  | 73.9 to 75.9 | 64.8 | 
C#CCOC(=O)C1=CCC2(C(=O)N3C(C(=O)OC(c4ccccc4)c4ccccc4)C(C)(C)SC32)C1C(=O)c1ccccc1 (centres unmarked) [Compound 9m, (1’R,2’R)-Benzhydryl spiro[(2-benzoyl-3-(prop-2-yn-1-yloxycarbonyl)cyclopent-3-ene)-1’,6-penicillanate]] |  |  |  | 203 | 437 | 94 |  |  | 62.2 to 64.8 | 60.1 | 296.11
CC1(C)SC2N(C(=O)C23CC=C(C(=O)OC(c2ccccc2)c2ccccc2)C3C(=O)c2ccccc2)C1C(=O)OC(c1ccccc1)c1ccccc1 (centres unmarked) [Compound 9g, (1’R,2’R)-Benzhydryl spiro[(2-benzoyl-3-benzhydryloxycarbonylcyclopent-3-ene)-1’,6-penicillanate]] |  |  |  |  |  | 0 |  |  | 83.4 to 85.2 | 45.3 | 
CC1(C)SC2N(C(=O)C23CC=C(C(=O)OCc2ccccc2)C3C(=O)c2ccco2)C1C(=O)OC(c1ccccc1)c1ccccc1 (centres unmarked) [Compound 12i, (1’R,2’R)-Benzhydryl spiro[(2-furoyl-3-benzyloxycarbonylcyclopent-3-ene)-1’,6-penicillanate]] |  |  |  | 140 | 223 | 87 |  |  | 76.5 to 78.5 | 78.3 | 559.29
CC(C)(C)c1ccc(OC(=O)C2=CCC3(C(=O)N4C(C(=O)OC(c5ccccc5)c5ccccc5)C(C)(C)SC43)C2C(=O)c2ccccc2)cc1 (centres unmarked) [Compound 9b, (1’R,2’R)-Benzhydryl spiro[(2-benzoyl-3-(4-tert-butylphenoxycarbonyl)cyclopent-3-ene)-1’,6-penicillanate]] |  |  |  |  |  | 0 |  |  | 206.7 to 208.9 | 54.7 | 
CC1(C)SC2N(C(=O)C23C(C(=O)OCc2ccccc2)=CCC3C(=O)c2ccc3ccccc3c2)C1C(=O)OC(c1ccccc1)c1ccccc1 (centres unmarked) [Compound 13h, (1’R,2’R)-Benzhydryl spiro[(2-naphthoyl-5-benzyloxycarbonylcyclopent-4-ene)-1’,6-penicillanate]] |  |  |  |  |  | 0 |  |  | 90.8 to 92.8 | 56.2 | 
CC1(C)SC2N(C(=O)C23C(C(=O)OCc2ccccc2)=CCC3C(=O)c2ccc([N+](=O)[O-])cc2)C1C(=O)OC(c1ccccc1)c1ccccc1 (centres unmarked) [Compound 13d, (1’R,2’R)-Benzhydryl spiro[(2-(4-nitrobenzoyl)-5-benzyloxycarbonylcyclopent-4-ene)-1’,6-penicillanate]] |  |  |  |  |  | 0 |  |  | 122.7 to 124.7 | 73.8 | 
CC1(C)SC2N(C(=O)C23CC=C(C(=O)OCC=Cc2ccccc2)C3C(=O)c2ccc(Br)cc2)C1C(=O)OC(c1ccccc1)c1ccccc1 (centres unmarked) [Compound 14i, (1’R,2’R)-Benzhydryl spiro[(2-(4-bromobenzoyl)-3-cinnamyloxycarbonylcyclopent-3-ene)-1’,6-penicillanate]] |  |  |  | 143 | 305 | 95 |  |  | 89.1 to 91.1 | 66.9 | 467.62
CC1(C)SC2N(C(=O)C23CC=C(C(=O)OCc2ccc(F)cc2)C3C(=O)c2ccccc2)C1C(=O)OC(c1ccccc1)c1ccccc1 (centres unmarked) [Compound 9l, (1’R,2’R)-Benzhydryl spiro[(2-benzoyl-3-(4-fluorobenzyloxycarbonyl)cyclopent-3-ene)-1’,6-penicillanate]] |  |  |  | 111 | 221 | 100 |  |  | 67.2 to 69.3 | 55.8 | 502.97
CC1(C)SC2N(C(=O)C23CC=C(C(=O)OCc2ccccc2)C3C(=O)c2ccc(Cl)cc2)C1C(=O)OC(c1ccccc1)c1ccccc1 (centres unmarked) [Compound 12b, (1’R,2’R)-Benzhydryl spiro[(2-(4-chlorobenzoyl)-3-benzyloxycarbonylcyclopent-3-ene)-1’,6-penicillanate]] |  |  |  | 63 | 104 | 92 |  |  | 145.2 to 146.5 | 56 | 888.73
CC1(C)SC2N(C(=O)C23CC=C(C(=O)OCC=Cc2ccccc2)C3C(=O)c2ccc(Cl)cc2)C1C(=O)OC(c1ccccc1)c1ccccc1 (centres unmarked) [Compound 14f, (1’R,2’R)-Benzhydryl spiro[(2-(4-chlorobenzoyl)-3-cinnamyloxycarbonylcyclopent-3-ene)-1’,6-penicillanate]] |  |  |  | 67 | 198 | 97 |  |  | 81.7 to 83.7 | 87.5 | 1305.67
Cc1ccc(COC(=O)C2=CCC3(C(=O)N4C(C(=O)OC(c5ccccc5)c5ccccc5)C(C)(C)SC43)C2C(=O)c2ccc(Cl)cc2)cc1 (centres unmarked) [Compound 14e, (1’R,2’R)-Benzhydryl spiro[(2-(4-chlorobenzoyl)-3-(4-methylbenzyloxycarbonyl)cyclopent-3-ene)-1’,6-penicillanate]] |  |  |  | 211 | 720 | 94 |  |  | 79.5 to 81.5 | 100 | 474.41
CC1(C)SC2N(C(=O)C23C(C(=O)OCc2ccccc2)=CCC3C(=O)c2ccc(Br)cc2)C1C(=O)OC(c1ccccc1)c1ccccc1 (centres unmarked) [Compound 13c, (1’R,2’R)-Benzhydryl spiro[(2-(4-bromobenzoyl)-5-benzyloxycarbonylcyclopent-4-ene)-1’,6-penicillanate]] |  |  |  |  |  | 0 |  |  | 115.9 to 117.9 | 50.6 | 

— paper PMC9585939, “Unveiling a family of spiro-β-lactams with anti-HIV and antiplasmodial activity via phosphine-catalyzed [3+2] annulation of 6-alkylidene-penicillanates and allenoates” (Frontiers in Chemistry, 2022)
